Measured values taken from US8476455B2, “1-N-phenyl-amino-1h-imidazole derivatives and pharmaceutical compositions containing them” (Laboratoire Theramex, priority 2003, dated 2013).

Experiments:
human aromatase [1] = molecular target: T1, human aromatase (Homo sapiens, UniProt P11511); assay: Dual aromatase and steroid sulfatase activities in JEG-3 cells: aromatase readout; type: cell-based; conditions: footnote c: dual aromatase and sulfatase activity, nd: not detected, read-out: Aromatase activity IC50 (nM) ± S.E.M.
T1 construct: The JEG-3 cell line, derived from a human placental choriocarcinoma, constitutively overexpresses human aromatase; endogenous in cells; host or cells: JEG-3 (human placental choriocarcinoma)
T1 sequence (P11511 1-503): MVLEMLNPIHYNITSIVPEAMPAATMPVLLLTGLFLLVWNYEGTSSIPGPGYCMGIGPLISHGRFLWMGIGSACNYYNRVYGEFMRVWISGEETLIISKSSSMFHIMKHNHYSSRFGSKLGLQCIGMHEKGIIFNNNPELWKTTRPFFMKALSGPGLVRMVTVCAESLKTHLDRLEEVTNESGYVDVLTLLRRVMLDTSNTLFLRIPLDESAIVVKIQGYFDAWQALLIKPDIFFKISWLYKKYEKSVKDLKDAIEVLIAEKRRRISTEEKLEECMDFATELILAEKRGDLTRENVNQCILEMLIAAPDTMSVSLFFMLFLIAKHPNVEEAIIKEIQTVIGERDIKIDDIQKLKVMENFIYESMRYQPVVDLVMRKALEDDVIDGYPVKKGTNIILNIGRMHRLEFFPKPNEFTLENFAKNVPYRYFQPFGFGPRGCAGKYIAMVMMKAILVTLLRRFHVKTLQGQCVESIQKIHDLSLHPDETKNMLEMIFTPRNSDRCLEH
Experimental: Assays were carried out with cells in logarithmic growth phase on 96-well microplates. 24 h before studies, cells were seeded in decomplemented fetal calf serum (dFCS) supplemented medium. The medium was removed 24 h later and cells were rinsed with PBS to eliminate any trace of dFCS. Then, ^3H-E1S was added in dFCS free medium, followed by test compounds at concentrations ranging from 10^−12 M to 10^−5 M. After 4 h of treatment, the medium was transferred into 96-deep-well microplates and centrifuged at 200×g for 10 min to pellet cells before toluene extraction. A fraction of the medium was used for toluene extraction in order to separate the conjugated substrate from non-conjugated products. The radioactivity in the toluene phase was measured by liquid scintillation counting. […] Finally, estrone sulfatase activity was expressed in pmoles of ^3H-E1+^3H-E2 formed/4 hours/mg DNA and estrone sulfatase inhibition as a percentage of control activity without inhibitor.
In order to evaluate the inhibitory potency of DASI compounds in parallel on both human aromatase and steroid sulfatase activities, a new in vitro model was set up using JEG-3 cells. The experimental conditions of the steroid sulfatase model previously described was adopted with slight modifications: the presence of the two substrates ^3-HE1S and 1β-^3H-androstenedione into the medium and an incubation period of 2 hours. Results were expressed in pmoles of product formed (^3H-E1+^3H-E2 or ^3H2O)/2 hours/mg DNA (Table 1).

human aromatase [2] = molecular target: T1, human aromatase; assay: Aromatase activity alone, tritiated water method in JEG-3 cells; type: cell-based; conditions: footnote a: aromatase activity alone, nd: not detected, read-out: Aromatase activity IC50 (nM) ± S.E.M.
Experimental: The JEG-3 cell line, derived from a human placental choriocarcinoma, constitutively overexpresses human aromatase and represents a relevant model for assaying putative aromatase inhibitors in vitro. Aromatase activity was determined by the tritiated water method. In brief, cells were first seeded into 96-well microplates in decomplemented fetal calf serum (dFCS) supplemented medium. 24 hours later, cells were rinsed and fresh medium containing 1β-^3H-androstenedione as aromatase substrate was added together with test compounds at concentrations ranging from 10^−12 M to 10^−5 M. After 2 hours of incubation, a fraction of the medium was transferred to homologous new 96-well microplates and a dextran-coated charcoal solution was added to each well. Following standing on ice for 10 minutes, microplates were centrifuged (1500 g; 4° C.). All steroids, including the radioactive substrate and the newly biosynthesized estrogens, were adsorbed on charcoal; only ^3H-water specifically formed during aromatisation of 1β-^3H-androstenedione, remained in the supernatant. The radioactivity in the supernatant was measured by liquid scintillation counting. In parallel, cell solubilization was performed in ethylenediamine tetraacetate solution. […] Finally, aromatase activity was expressed in fmoles of ^3H-water formed/2 hours/μg DNA and aromatase inhibition as a percentage of control activity without inhibitor.

Row | melting point | IC50 (human aromatase [1]) | IC50 (human aromatase [2]) | SMILES
1 | 197 °C | – | – | N#Cc1ccc(N(Cc2ccc(OS(N)(=O)=O)cc2NS(N)(=O)=O)n2ccnc2)cc1 [Ex 54, Sulfamic acid 3-(aminosulfonyl)amino-4-{[N-(4-cyanophenyl)-N-(1H-imidazol-1yl)amino]methyl}phenyl ester]
2 | 188 °C | 0.61 ± 0.21 nM | – | N#Cc1ccc(N(CCOc2ccc(O)cc2)n2ccnc2)cc1 [Ex 36, 4-{N-[2-(4-hydroxyphenoxy)ethyl]-N-(1H-imidazol-1-yl)amino}benzonitrile]
3 | 248 °C | 52 ± 9.6 nM | – | N#Cc1ccc(N(n2ccnc2)S(=O)(=O)c2ccc(O)cc2)cc1 [Ex 37, N-(4-cyanophenyl)-N-(1H-imidazol-1-yl)-4-hydroxybenzensulfonamide]
4 | 230 °C | – | – | N#Cc1ccc(N(Cc2cc3ccc(O)cc3s2)n2ccnc2)cc1 [Ex 39, 4-[N-[(6-hydroxy-benzothien-2-yl)methyl]-N-(1H-imidazol-1-yl)amino]benzonitrile]
5 | – | – | 0.67 ± 0.1 nM | N#Cc1ccc(N(c2ccc(N)cc2)n2ccnc2)cc1 [Ex 40, 4-[N-(4-aminophenyl)-N-(1H-imidazol-1-yl)amino]benzonitrile]
6 | – | – | 1.06 ± 0.21 nM | N#Cc1ccc(N(Cc2ccc3c(c2)CNS(=O)(=O)O3)n2ccnc2)cc1 [Ex 61, 4-[N-[(2,2-dioxido-3,4-dihydro-1,2,3-benzoxathiazin-6-yl)methyl]-N-(1H-imidazol-1-yl)amino]benzonitrile]
7 | – | – | 0.17 ± 0.01 nM | N#Cc1ccc(N(Cc2ccc(O)cc2)n2ccnc2)cc1 [Ex 11, 4-[N-(4-hydroxyphenylmethyl)-N-(1H-imidazol-1-yl)amino]benzonitrile]
8 | 104 °C | – | – | COc1ccc2c(CC(=O)N(c3ccc(C#N)cc3)n3ccnc3)csc2c1 [Ex 29, N-(4-cyanophenyl)-N-(1H-imidazol-1-yl)-2-(6-methoxy-benzothien-3-yl)acetamide]
9 | 215 °C | – | 0.21 ± 0.05 nM | COc1cc(CN(c2ccc(C#N)cc2)n2ccnc2)ccc1O [Ex 14, 4-[N-(4-hydroxy-3-methoxyphenylmethyl)-N-(1H-imidazol-1-yl)amino]benzonitrile]
10 | 132 °C | – | – | N#Cc1ccc(N(C(=O)c2ccc(Cl)nc2)n2ccnc2)cc1 [Ex 23, 6-chloro-N-(4-cyanophenyl)-N-(1H-imidazol-1-yl)nicotinamide]
11 | 205 °C | – | 0.3 nM | N#Cc1ccc(N(Cc2ccc(O)c([N+](=O)[O-])c2)n2ccnc2)cc1 [Ex 20, 4-[N-(4-hydroxy-3-nitrophenylmethyl)-N-(1H-imidazol-1-yl)amino]benzonitrile]
12 | 179 °C | – | – | N#Cc1ccc(N(C(=O)Cc2csc3cc(O)ccc23)n2ccnc2)cc1 [Ex 34, N-(4-cyanophenyl)-N-(1H-imidazol-1-yl)-2-(6-hydroxy-benzothien-3-yl)acetamide]
13 | 193 °C | – | – | N#Cc1ccc(N(Cc2csc3cc(OS(N)(=O)=O)ccc23)n2ccnc2)cc1 [Ex 58, Sulfamic acid 3-{[N-(4-cyanophenyl)-N-(1H-imidazol-1yl)amino]methyl}-benzothien-6-yl ester]
14 | 172 °C | – | 50.6 nM | N#Cc1ccc(N(C(=O)CCc2ccc(O)cc2)n2ccnc2)cc1 [Ex 26, N-(4-cyanophenyl)-3-(4-hydroxyphenyl)-N-(1H-imidazol-1-yl)propanamide]
15 | 243 °C | – | – | N#Cc1ccc(N(Cc2c(F)c(F)c(O)c(F)c2F)n2ccnc2)cc1 [Ex 15, 4-[N-(2,3,5,6-tetrafluoro-4-hydroxyphenylmethyl)-N-(1H-imidazol-1-yl)amino]benzonitrile]
16 | 156 °C | – | – | N#Cc1ccc(N(Cc2ccc(Cl)nc2)n2ccnc2)cc1 [Ex 18, 4-{N-[(6-chloropyridin-3-yl)methyl]-N-(1H-imidazol-1-yl)amino}benzonitrile]
17 | – | 0.06 nM | – | COc1ccc2c(CN(c3ccc(C#N)cc3)n3ccnc3)csc2c1 [Ex 30, 4-{N-[1H-imidazol-1-yl]-N-[(6-methoxy-benzothien-3-yl)methyl]amino}benzonitrile]
18 | 187 °C | – | – | COc1ccc(CN(c2ccc(C#N)cc2)n2ccnc2)cc1C(=O)O [Ex 21, 5-{[N-(4-cyanophenyl)-N-(1H-imidazol-1-yl)amino]methyl}-2-methoxybenzoic acid]
19 | 172 °C | – | – | N#Cc1ccc(N(C2=CS(=O)(=O)c3cc(OS(N)(=O)=O)ccc32)n2ccnc2)cc1 [Ex 56, Sulfamic acid 3-[N-(4-cyanophenyl)-N-(1H-imidazol-1yl)amino]-1,1-dioxido-benzothien-6-yl ester]
20 | – | 81.8 nM | – | N#Cc1ccc(N(Cc2ccc(O)c(C(=O)O)c2)n2ccnc2)cc1 [Ex 62, 5-{[N-(4-cyanophenyl)-N-(1H-imidazol-1-yl)amino]methyl}-2-hydroxybenzoic acid]
21 | 198 °C | 0.05 ± 0.02 nM | 0.17 ± 0.03 nM | N#Cc1ccc(N(Cc2ccc(O)c(Br)c2)n2ccnc2)cc1 [Ex 13, 4-[N-(3-bromo-4-hydroxyphenylmethyl)-N-(1H-imidazol-1-yl)amino]benzonitrile]
22 | 121 °C | – | – | N#Cc1ccc(N(c2ccc(NS(N)(=O)=O)cc2)n2ccnc2)cc1 [Ex 49, N-{4-[N-(4-cyanophenyl)-N-(1H-imidazol-1-yl)amino]phenyl}sulfamide]
23 | 178 °C | – | – | N#Cc1ccc(N(Cc2cc3ccc(OS(N)(=O)=O)cc3s2)n2ccnc2)cc1 [Ex 59, Sulfamic acid 2-{[N-(4-cyanophenyl)-N-(1H-imidazol-1yl)amino]methyl}-benzothien-6-yl ester]
24 | – | 4.3 nM | – | N#Cc1ccc(N(C(=O)c2cc3cc(N)ccc3s2)n2ccnc2)cc1 [Ex 41, 5-Amino-[N-(4-cyanophenyl)-N-(1H-imidazol-1-yl)]-benzothiophene-2-carboxamide]
25 | 160 °C | – | – | N#Cc1ccc(N(Cc2ccc(O)c(C=O)c2)n2ccnc2)cc1 [Ex 16, 4-[N-(3-formyl-4-hydroxyphenylmethyl)-N-(1H-imidazol-1-yl)amino]benzonitrile]
26 | – | – | 0.32 ± 0.4 nM | N#Cc1ccc(N(c2ccc([N+](=O)[O-])cc2)n2ccnc2)cc1 [Ex 22, 4-[N-(1H-imidazol-1-yl)-N-(4-nitrophenyl)amino]benzonitrile]
27 | – | 2.2 ± 0.7 nM | – | N#Cc1ccc(N(Cc2ccc(O)c(N)c2)n2ccnc2)cc1 [Ex 35, 4-[N-(3-amino-4-hydroxy-phenylmethyl)-N-(1H-imidazol-1-yl)amino]benzonitrile]
28 | 195 °C | – | – | N#Cc1ccc(N(Cc2ccc(O)c(Cl)c2)n2ccnc2)cc1 [Ex 12, 4-[N-(3-chloro-4-hydroxyphenylmethyl)-N-(1H-imidazol-1-yl)amino]benzonitrile]
29 | 131 °C | – | – | N#Cc1ccc(N(C(=O)Cc2ccc(F)cc2)n2ccnc2)cc1 [Ex 24, N-(1H-imidazol-1-yl)-N-(4-cyanophenyl)-2-(4-fluorophenyl)acetamide]
30 | 150 °C | – | – | N#Cc1ccc(N(Cc2ccc(S(N)(=O)=O)cc2)n2ccnc2)cc1 [Ex 19, 4-{[N-(4-cyanophenyl)-N-(1H-imidazol-1-yl)amino]methyl}benzene sulfonamide]
